# Test results reported in patent US20220387303A1, “Vaginal Drug Delivery Device” (THE REGENTS OF THE UNIVERSITY OF CALIFORNIA, priority 2019, published 2022).
# Columns and labels:
# [1] = In vitro cumulative drug release from devices in PBS (pH 7.4) at 37° C. under gentle shaking; format: physicochemical
# [2] = test system: Candida albicans (ATCC 18804); experiment: Liquid assay, inhibition of yeast growth in Sabouraud dextrose broth; format: cell-based; settings: for Optical Density (OD600): 12 h; for Cell Density: converted from OD600
# Description: Liquid assay was also used to further characterize the […] properties. Candida albicans (ATCC 18804) was cultured in Sabouraud dextrose broth with a starting concentration of 0.08 OD600 value. After 12 h, optical density was measured using spectrometer at 600 nm wavelength. Then, conversion to cell density is using the approximation 0.5 equals 1.5×10^8 CFU/ml.
SMILES,sustained release duration ([1]; clotrimazole from PLGA device),"IC50 ([2]; Candida albicans, ATCC18804, after 12 h, starting 0.08 OD600, read-out: IC50 (half maximal inhibitory concentration))",Optical Density (OD600) ([2]; Clotrimazole Conc. 0.37 μg/ml),Cell Density ([2]; Clotrimazole Conc. 0.37 μg/ml),Optical Density (OD600) ([2]; Clotrimazole Conc. 1.1 μg/ml),Cell Density ([2]; Clotrimazole Conc. 1.1 μg/ml),Optical Density (OD600) ([2]; Clotrimazole Conc. 3.3 μg/ml),Cell Density ([2]; Clotrimazole Conc. 3.3 μg/ml),Optical Density (OD600) ([2]; Clotrimazole Conc. 10 μg/ml),Cell Density ([2]; Clotrimazole Conc. 10 μg/ml),"prolonged and sustained release of hormone drugs, duration ([1]; released from device)"
Clc1ccccc1C(c1ccccc1)(c1ccccc1)n1ccnc1 [Clotrimazole],up to 10 days,3.3 µg/mL,0.9,2.7e+08 mL⁻¹,0.8,2.4e+08 mL⁻¹,0.7,2.1e+08 mL⁻¹,0.5,1.5e+08 mL⁻¹,–
CC(=O)[C@H]1CC[C@H]2[C@@H]3CCC4=CC(=O)CC[C@]4(C)[C@H]3CC[C@]12C [progesterone],–,–,–,–,–,–,–,–,–,–,more than two months
